# Assay results from ChEMBL document CHEMBL5136987, “Redesigning of the cap conformation and symmetry of the diphenylethyne core to yield highly potent pan-genotypic NS5A inhibitors with high potency and high resistance barrier” (Eur J Med Chem, 2022).
# Calls of active or inactive are those of the source. The rule behind the calls is not given here.
# Assays:
# Hepatitis C virus [1] = assay: Antiviral activity against HCV GT-1b Con1 in human Huh-5-2 cells carrying HCV subgenomic replicon assessed as reduction of viral replication measured after 72 hrs by Firefly luciferase reporter gene assay; assay type: functional, organism-based, Hepacivirus hominis; conditions: subtype 1b Con1, Huh-5-2, 72 h
# [2] = Cytotoxicity against human Huh-5-2 cells carrying HCV subgenomic replicon assessed as decrease in intracellular ATP level measured after 72 hrs by Glo-max luminescence based assay; assay type: toxicity, cell-based
# [3] = Selectivity index, ratio of CC50 for cytotoxicity against human Huh-5-2 cells carrying HCV subgenomic replicon assessed as decrease in intracellular ATP level to EC50 for antiviral activity against HCV GT-1b Con1 in human Huh-5-2 cells carrying HCV subgenomic replicon assessed as reduction of viral replication; assay type: toxicity, cell-based; conditions: read-out: Ratio CC50/EC50
# Hepatitis C virus [4] = assay: Antiviral activity against HCV 4a ED43 in human Huh7.5 cells carrying HCV subgenomic replicon assessed as inhibition of viral replication measured after 72 hrs by Firefly luciferase reporter gene assay; assay type: functional, organism-based, Hepacivirus hominis; conditions: subtype 4a ED43, Huh7.5, 72 h
# Hepatitis C virus [5] = assay: Antiviral activity against HCV 2a JFH1 in human Huh-7 cells carrying HCV subgenomic replicon assessed as inhibition of viral replication measured after 72 hrs by Firefly luciferase reporter gene assay; assay type: functional, cell-based; conditions: 2a JFH1, Huh-7, 72 h
# [6] = Metabolic stability in human S9 fraction assessed as half life at 10 mg/ml measured upto 120 mins in presence of NADP […] system by LC-MS/MS analysis; assay type: ADME, subcellular
# [7] = Metabolic stability in human S9 fraction assessed as clearance at 10 mg/ml measured upto 120 mins in presence of NADP […] system by LC-MS/MS analysis; assay type: ADME, subcellular
# Hepatitis C virus [8] = assay: Antiviral activity against HCV 3a S52 in human Huh7.5 cells carrying HCV subgenomic replicons assessed as inhibition of viral replication measured after 72 hrs by Firefly luciferase reporter gene assay; assay type: functional, organism-based, Hepacivirus hominis; conditions: subtype 3a S52, Huh7.5, 72 h
# Hepatitis C virus [9] = assay: Antiviral activity against HCV GT-1b Con1 infected in human Huh-5-2 cells carrying HCV subgenomic replicon assessed as reduction of viral replication by RT-qPCR analysis; assay type: functional, organism-based, Hepacivirus hominis; conditions: subtype 1b Con1, Huh-5-2
# Hepatitis C virus [10] = assay: Antiviral activity against full length HCV GT-1a H77S.3 in human Huh-7-Lunet cells carrying HCV subgenomic replicon assessed as inhibition of viral replication measured after 72 hrs by Firefly luciferase reporter gene assay; assay type: functional, organism-based, Hepacivirus hominis; conditions: genotype 1a H77S.3, Huh-7, 72 h
# Hepatitis C virus [11] = assay: Antiviral activity against HCV GT-1b Con1 in human Huh-5-2 cells carrying HCV subgenomic replicon assessed as drug resistance upto 100X EC50 and measured after 30 passages in presence of G418 by NGS analysis; assay type: functional, organism-based, Hepacivirus hominis; conditions: subtype 1b Con1, Huh-5-2
# Hepatitis C virus [12] = assay: Antiviral activity against HCV GT-1b Con1 infected in human Huh-5-2 cells carrying HCV subgenomic replicon assessed as reduction in NS5A protein level incubated at 3.3 to 30 pM by PI staining based indirect immunofluorescence assay; assay type: functional, organism-based; conditions: Hepacivirus hominis, subtype 1b Con1, dose 3.3-30 pM
# [13] = Selectivity index, ratio of EC50 for antiviral activity against HCV GT-1b Con1 in human Huh-5-2 cells carrying HCV subgenomic replicon assessed as drug resistance measured after 15weeks in presence of G418 by NGS analysis to EC50 for antiviral activity against HCV GT-1b Con1 in human Huh-5-2 cells carrying HCV subgenomic replicon assessed as drug resistance measured after 30 passages in presence of G418; assay type: functional, Hepatitis C virus subtype 1b
# Hepatitis C virus [14] = assay: Antiviral activity against HCV GT-1b Con1 in human Huh-5-2 cells carrying HCV subgenomic replicon assessed as drug resistance upto 100X EC50 and measured after 15 weeks in presence of G418 by NGS analysis; assay type: functional, organism-based, Hepacivirus hominis; conditions: subtype 1b Con1, Huh-5-2
Compound,EC50 (Hepatitis C virus [1]),CC50 at 72 h [2],selectivity ratio [3],half-life at 10 mg/ml [6],other results
COC(=O)N[C@@H](C(=O)N1CCC[C@H]1C(=O)Nc1ccc(C#Cc2cccc(NC(=O)[C@@H]3CCCN3C(=O)[C@H](NC(=O)OC)c3ccccc3)c2)cc1)c1ccccc1,1 nM,> 1000 nM,> 995,,
COC(=O)N[C@H](C(=O)N1CCC[C@H]1C(=O)Nc1ccc(C#Cc2cccc(NC(=O)[C@@H]3CCCN3C(=O)[C@@H](NC(=O)OC)C(C)C)c2)cc1)C(C)C,0.179 nM,41200 nM,231000,,
COC(=O)N[C@H](CCSC)C(=O)N1CCC[C@H]1C(=O)Nc1cccc(C#Cc2cccc(NC(=O)[C@@H]3CCCN3C(=O)[C@@H](CCSC)NC(=O)OC)c2)c1,0.528 nM,> 1000 nM,> 1890,,
CCCCOC(=O)N[C@@H](CC(C)C)C(=O)N1CCC[C@H]1C(=O)Nc1cccc(C#Cc2cccc(NC(=O)[C@@H]3CCCN3C(=O)[C@H](CC(C)C)NC(=O)OCCCC)c2)c1,> 1000 nM,> 1000 nM,,,
COC(=O)N[C@H](CC(C)C)C(=O)N1CCC[C@H]1C(=O)Nc1cccc(C#Cc2cccc(NC(=O)[C@@H]3CCCN3C(=O)[C@@H](CC(C)C)NC(=O)OC)c2)c1,0.175 nM,97800 nM,560000,,
COC(=O)N[C@@H](CC(C)C)C(=O)N1CCC[C@H]1C(=O)Nc1cccc(C#Cc2cccc(NC(=O)[C@@H]3CCCN3C(=O)[C@H](CC(C)C)NC(=O)OC)c2)c1,0.133 nM,54400 nM,407000,,
COC(=O)N[C@@H](C(=O)N1CCC[C@H]1C(=O)Nc1ccc(C#Cc2ccc(NC(=O)[C@@H]3CCCN3C(=O)[C@H](NC(=O)OC)c3ccccc3)cc2)cc1)c1ccccc1,0.00259 nM,28200 nM,,> 120 min,EC50 (Hepatitis C virus [4]): 0.194 nM; EC50 (Hepatitis C virus [5]): 0.147 nM; microsomal CLint [7]: < 5.8 µL/min/mg; EC50 (Hepatitis C virus [8]): 0.316 nM
C[C@]12CC[C@H]3[C@@H](CCC4=CC(=O)CC[C@@]43C)[C@@H]1CC[C@@H]2O [TESTOSTERONE],,,,7.4 min,
COC(=O)N[C@@H](C(=O)N1CCC[C@H]1C(=O)Nc1cccc(C#Cc2cccc(NC(=O)[C@@H]3CCCN3C(=O)[C@H](NC(=O)OC)C(C)C)c2)c1)C(C)C,1.12 nM,> 1000 nM,> 891,,
COC(=O)N[C@H](C(=O)N1CCC[C@H]1C(=O)Nc1cccc(C#Cc2cccc(NC(=O)[C@@H]3CCCN3C(=O)[C@@H](NC(=O)OC)C(C)C)c2)c1)C(C)C,0.0308 nM,> 100000 nM,> 3.25e+06,,EC50 (Hepatitis C virus [4]): 279 nM; EC50 (Hepatitis C virus [5]): 233 nM; EC50 (Hepatitis C virus [8]): 2150 nM
COC(=O)N[C@@H](CCSC)C(=O)N1CCC[C@H]1C(=O)Nc1cccc(C#Cc2cccc(NC(=O)[C@@H]3CCCN3C(=O)[C@H](CCSC)NC(=O)OC)c2)c1,0.136 nM,> 1000 nM,> 7350,,
COC(=O)N[C@@H](C(=O)N1CCC[C@H]1C(=O)Nc1cccc(C#Cc2cccc(NC(=O)[C@@H]3CCCN3C(=O)[C@H](NC(=O)OC)c3ccccc3)c2)c1)c1ccccc1,0.00123 nM,43200 nM,,20 min,EC50 (Hepatitis C virus [9]): 0.00157 nM; EC50 (Hepatitis C virus [4]): 0.0163 nM; EC50 (Hepatitis C virus [5]): 0.123 nM; EC50 (Hepatitis C virus [10]): 0.0259 nM; EC50 (Hepatitis C virus [11]): 0.00266 nM; Activity (Hepatitis C virus [12]): Active; microsomal CLint [7]: 35.6 µL/min/mg; Ratio EC50 [13]: 64.4; EC50 (Hepatitis C virus [14]): 0.171 nM; EC50 (Hepatitis C virus [8]): 0.0559 nM
COC(=O)N[C@H](C(=O)N1CCC[C@H]1C(=O)Nc1ccc(C#Cc2ccc(NC(=O)[C@@H]3CCCN3C(=O)[C@@H](NC(=O)OC)C(C)C)cc2)cc1)C(C)C,0.131 nM,> 1000 nM,> 7660,,EC50 (Hepatitis C virus [4]): 446 nM; EC50 (Hepatitis C virus [5]): 60.1 nM; EC50 (Hepatitis C virus [8]): 405 nM
CC(C)[C@H](NC(=O)OCc1ccccc1)C(=O)N1CCC[C@H]1C(=O)Nc1cccc(C#Cc2cccc(NC(=O)[C@@H]3CCCN3C(=O)[C@@H](NC(=O)OCc3ccccc3)C(C)C)c2)c1,999 nM,> 1000 nM,,,
CCCCOC(=O)N[C@H](C(=O)N1CCC[C@H]1C(=O)Nc1cccc(C#Cc2cccc(NC(=O)[C@@H]3CCCN3C(=O)[C@@H](NC(=O)OCCCC)C(C)C)c2)c1)C(C)C,577 nM,> 100000 nM,> 173,,
COC(=O)N[C@H](C(=O)N1CCC[C@H]1C(=O)Nc1cccc(C#Cc2cccc(NC(=O)[C@@H]3CCCN3C(=O)[C@H](NC(=O)OC)c3ccccc3)c2)c1)C(C)C,0.0033 nM,33600 nM,,18.8 min,microsomal CLint [7]: 36.4 µL/min/mg
"COC(=O)N[C@@H](C(=O)N1CCCC1C(=O)Nc1cccc(C#Cc2cccc(-c3cnc([C@@H]4CCCN4C(=O)[C@H](NC(=O)OC)c4ccccc4)[nH]3)c2)c1)c1ccccc1 (single isomer, unassigned)",0.0906 nM,> 1000 nM,> 11000,73.6 min,microsomal CLint [7]: 9.4 µL/min/mg
CCOC(=O)N[C@H](C(=O)N1CCC[C@H]1C(=O)Nc1cccc(C#Cc2cccc(NC(=O)[C@@H]3CCCN3C(=O)[C@@H](NC(=O)OCC)C(C)C)c2)c1)C(C)C,12.2 nM,> 100000 nM,> 8230,,
COC(=O)N[C@@H](C(=O)N1CCC[C@H]1C(=O)Nc1cccc(C#Cc2ccc(-c3cnc([C@@H]4CCCN4C(=O)[C@H](NC(=O)OC)c4ccccc4)[nH]3)cc2)c1)c1ccccc1,0.00114 nM,26200 nM,,> 120 min,EC50 (Hepatitis C virus [4]): 0.0504 nM; EC50 (Hepatitis C virus [5]): 0.134 nM; microsomal CLint [7]: < 5.8 µL/min/mg; EC50 (Hepatitis C virus [8]): 0.229 nM
COC(=O)N[C@H](C(=O)N1CCC[C@H]1C(=O)Nc1cccc(C#Cc2cccc(NC(=O)[C@@H]3CCCN3C(=O)[C@@H](NC(=O)OC)c3ccccc3)c2)c1)c1ccccc1,0.0044 nM,24200 nM,5.56e+06,75.9 min,microsomal CLint [7]: 9.9 µL/min/mg
COC(=O)N[C@H](C(=O)N1CCC[C@H]1c1ncc(-c2ccc(-c3ccc(-c4cnc([C@@H]5CCCN5C(=O)[C@@H](NC(=O)OC)C(C)C)[nH]4)cc3)cc2)[nH]1)C(C)C [DACLATASVIR],,,,,EC50 (Hepatitis C virus [4]): 0.0212 nM; EC50 (Hepatitis C virus [5]): 0.0578 nM; EC50 (Hepatitis C virus [10]): 0.136 nM; EC50 (Hepatitis C virus [11]): 0.0257 nM; Ratio EC50 [13]: 132; EC50 (Hepatitis C virus [14]): 3.39 nM; EC50 (Hepatitis C virus [8]): 8.35 nM
CCOC(=O)N[C@@H](CC(C)C)C(=O)N1CCC[C@H]1C(=O)Nc1cccc(C#Cc2cccc(NC(=O)[C@@H]3CCCN3C(=O)[C@H](CC(C)C)NC(=O)OCC)c2)c1,25 nM,24200 nM,968,,
CCSC[C@@H](NC(=O)OC)C(=O)N1CCC[C@H]1C(=O)Nc1cccc(C#Cc2cccc(NC(=O)[C@@H]3CCCN3C(=O)[C@@H](CSCC)NC(=O)OC)c2)c1,0.86 nM,11200 nM,13000,,
